# Measurements taken from patent US10092575B2, “Substituted thiophene- and furan-fused azolopyrimidine-5-(6H)-one compounds” (DART NEUROSCIENCE (CAYMAN) LTD., priority 2012, dated 2018).
# Molecular target: human PDE1b enzyme (Homo sapiens (Human), UniProt Q01064)
# Assay: PDE1b inhibitory assay (IMAP TR-FRET)
# Conditions: not given
row,SMILES,EC50 [nM]
1,"COc1ccc(Cn2c(=O)n3ncnc3c3cc(CN4CCC(Oc5ccncc5)CC4)sc32)cc1 [Example 185, 6-(4-Methoxybenzyl)-8-((4-(pyridin-4-yloxy)piperidin-1-yl)methyl)thieno[3,2-e][1,2,4]triazolo[1,5-c]pyrimidin-5(6H)-one]",100 to 1000
2,"COc1ccc(Cn2c(=O)n3ncnc3c3cc(CN4CCN(c5ccc(F)cc5)CC4)sc32)cc1 [Example 188, 8-((4-(4-Fluorophenyl)piperazin-1-yl)methyl)-6-(4-methoxybenzyl)thieno[3,2-e][1,2,4]triazolo[1,5-c]pyrimidin-5(6H)-one]",100 to 1000
3,"COc1ccc(Cn2c(=O)n3ncnc3c3cc(CN4CC(Oc5ccccc5F)C4)sc32)cc1 [Example 190, 8-((3-(2-Fluorophenoxy)azetidin-1-yl)methyl)-6-(4-methoxybenzyl)thieno[3,2-e][1,2,4]triazolo[1,5-c]pyrimidin-5(6H)-one]",1000 to 10000
4,"COc1ccc(Cn2c(=O)n3ncnc3c3cc(CN4CCC5(C4)CC5(F)F)sc32)cc1 (stereo not shown) [Example 192, 8-((1,1-Difluoro-5-azaspiro[2.4]heptan-5-yl)methyl)-6-(4-methoxybenzyl)thieno[3,2-e][1,2,4]triazolo[1,5-c]pyrimidin-5(6H)-one]",100 to 1000
5,"COc1ccc(Cn2c(=O)n3ncnc3c3c(CN4CCCC(CO)(CC(C)C)C4)csc32)cc1 (stereo not shown) [Example 195, 9-((3-(Hydroxymethyl)-3-isobutylpiperidin-1-yl)methyl)-6-(4-methoxybenzyl)thieno[3,2-e][1,2,4]triazolo[1,5-c]pyrimidin-5(6H)-one]",100 to 1000
6,CCN(Cc1cc2c(s1)n(Cc1ccc(OC)cc1)c(=O)n1ncnc21)C1CCOC(C)(C)C1 (stereo not shown) [Example 196],1000 to 10000
7,"CCN(Cc1csc2c1c1ncnn1c(=O)n2Cc1ccc(OC)cc1)CC1CCOCC1 [Example 197, 9-((Ethyl((tetrahydro-2H-pyran-4-yl)methyl)amino)methyl)-6-(4-methoxybenzyl)thieno[3,2-e][1,2,4]triazolo[1,5-c]pyrimidin-5(6H)-one]",100 to 1000
8,"CCN(Cc1cc2c(s1)n(Cc1ccc(OC)cc1)c(=O)n1ncnc21)CC1CCOCC1 [Example 198, 8-((Ethyl((tetrahydro-2H-pyran-4-yl)methyl)amino)methyl)-6-(4-methoxybenzyl)thieno[3,2-e][1,2,4]triazolo[1,5-c]pyrimidin-5(6H)-one]",1000 to 10000
9,"COc1ccc(Cn2c(=O)n3ncnc3c3cc(CN4C[C@@H](C)O[C@@H](C)C4)sc32)c(F)c1F [Example 200, 6-(2,3-Difluoro-4-methoxybenzyl)-8-(((2R,6S)-2,6-dimethylmorpholino)methyl)thieno[3,2-e][1,2,4]triazolo[1,5-c]pyrimidin-5(6H)-one]",1000 to 10000
10,"COc1ccc(Cn2c(=O)n3ncnc3c3cc(CN(C)C4CCOCC4)sc32)cc1 [Example 204, 6-(4-Methoxybenzyl)-8-((methyl(tetrahydro-2H-pyran-4-yl)amino)methyl)thieno[3,2-e][1,2,4]triazolo[1,5-c]pyrimidin-5(6H)-one]",1000 to 10000
11,"COc1ccc(Cn2c(=O)n3ncnc3c3cc(CN4CCOCC4)sc32)c(F)c1 [Example 208, 6-(2-Fluoro-4-methoxybenzyl)-8-(morpholinomethyl)thieno[3,2-e][1,2,4]triazolo[1,5-c]pyrimidin-5(6H)-one]",100 to 1000
12,"COc1ccc(Cn2c(=O)n3ncnc3c3cc(CN(C)CC4(C)COC4)sc32)c(F)c1F [Example 210, 6-(2,3-Difluoro-4-methoxybenzyl)-8-((methyl((3-methyloxetan-3-yl)methyl)amino)methyl)thieno[3,2-e][1,2,4]triazolo[1,5-c]pyrimidin-5(6H)-one]",100 to 1000
13,COc1ccc(Cn2c(=O)n3ncnc3c3cc(CNCC4(C)COC4)sc32)cc1 [Example 211],100 to 1000
14,"COc1ccc(Cn2c(=O)n3ncnc3c3cc(CN4CC(O)C4)sc32)c(F)c1F [Example 212, 6-(2,3-Difluoro-4-methoxybenzyl)-8-((3-hydroxyazetidin-1-yl)methyl)thieno[3,2-e][1,2,4]triazolo[1,5-c]pyrimidin-5(6H)-one]",100 to 1000
15,"COc1ccc(Cn2c(=O)n3ncnc3c3cc(CN4CC(O)C4)sc32)c(F)c1 [Example 213, 6-(2-Fluoro-4-methoxybenzyl)-8-((3-hydroxyazetidin-1-yl)methyl)thieno[3,2-e][1,2,4]triazolo[1,5-c]pyrimidin-5(6H)-one]",100 to 1000
16,"COc1ccc(Cn2c(=O)n3ncnc3c3cc(CN(C)C)sc32)c(F)c1F [Example 214, 6-(2,3-Difluoro-4-methoxybenzyl)-8-((dimethylamino)methyl)thieno[3,2-e][1,2,4]triazolo[1,5-c]pyrimidin-5(6H)-one]",100 to 1000
17,"COc1ccc(Cn2c(=O)n3ncnc3c3c(CN(C(C)C)C(C)C)csc32)cc1 [Example 215, 9-((Diisopropylamino)methyl)-6-(4-methoxybenzyl)thieno[3,2-e][1,2,4]triazolo[1,5-c]pyrimidin-5(6H)-one]",100 to 1000
18,"COc1ccc(Cn2c(=O)n3ncnc3c3c4c(sc32)CN(CC(C)C)CC4(F)F)cc1 [Example 218, 11,11-Difluoro-9-isobutyl-6-(4-methoxybenzyl)-8,9,10,11-tetrahydropyrido[4′,3′:4,5]thieno[3,2-e][1,2,4]triazolo[1,5-c]pyrimidin-5 (6H)-one]",100 to 1000

# Same assay, conditions: negative log of half-maximal molar inhibitory concentration; 200 nM FAM-cAMP; reported as ranges
row,SMILES,PDE1b (pEC50)
1,"COc1ccc(Cn2c(=O)n3ncnc3c3cc(CN4CCN(c5ccccc5F)CC4)sc32)cc1 [Example 186, 8-((4-(2-Fluorophenyl)piperazin-1-yl)methyl)-6-(4-methoxybenzyl)thieno[3,2-e][1,2,4]triazolo[1,5-c]pyrimidin-5(6H)-one]",>7
2,"COc1ccc(Cn2c(=O)n3ncnc3c3cc(CN4CCN(c5cccc(F)c5)CC4)sc32)cc1 [Example 187, 8-((4-(3-Fluorophenyl)piperazin-1-yl)methyl)-6-(4-methoxybenzyl)thieno[3,2-e][1,2,4]triazolo[1,5-c]pyrimidin-5(6H)-one]",>7
3,"COc1ccc(Cn2c(=O)n3ncnc3c3c(CN4CCC(Oc5ccccc5)C4)csc32)cc1 (stereo not shown) [Example 189, 6-(4-Methoxybenzyl)-9-((3-phenoxypyrrolidin-1-yl)methyl)thieno[3,2-e][1,2,4]triazolo[1,5-c]pyrimidin-5(6H)-one]",>7
4,COc1ccc(Cn2c(=O)n3ncnc3c3cc(CN4CCC(N5CCOCC5)CC4)sc32)cc1 [Example 191],>7
5,"COc1ccc(Cn2c(=O)n3ncnc3c3cc(CN4CCCN(C(C)=O)CC4)sc32)cc1 [Example 193, 8-((4-Acetyl-1,4-diazepan-1-yl)methyl)-6-(4-methoxybenzyl)thieno[3,2-e][1,2,4]triazolo[1,5-c]pyrimidin-5(6H)-one]",>7
6,"COc1ccc(Cn2c(=O)n3ncnc3c3cc(CN4CCCOCC4)sc32)c(F)c1F [Example 194, 8-((1,4-Oxazepan-4-yl)methyl)-6-(2,3-difluoro-4-methoxybenzyl)thieno[3,2-e][1,2,4]triazolo[1,5-c]pyrimidin-5(6H)-one]",>7
7,"COc1ccc(Cn2c(=O)n3ncnc3c3c(CN(C)CC4CCOCC4)csc32)cc1 [Example 199, 6-(4-Methoxybenzyl)-9-((methyl((tetrahydro-2H-pyran-4-yl)methyl)amino)methyl)thieno[3,2-e][1,2,4]triazolo[1,5-c]pyrimidin-5(6H)-one]",>7
8,"COc1ccc(Cn2c(=O)n3ncnc3c3cc(CN4C[C@@H](C)O[C@@H](C)C4)sc32)cc1F [Example 201, 8-(((2R,6S)-2,6-Dimethylmorpholino)methyl)-6-(3-fluoro-4-methoxybenzyl)thieno[3,2-e][1,2,4]triazolo[1,5-c]pyrimidin-5(6H)-one]",>7
9,"COc1ccc(Cn2c(=O)n3ncnc3c3c(CNCC4CCOCC4)csc32)cc1 [Example 203, 6-(4-Methoxybenzyl)-9-((((tetrahydro-2H-pyran-4-yl)methyl)amino)methyl)thieno[3,2-e][1,2,4]triazolo[1,5-c]pyrimidin-5(6H)-one]",>7
10,"C[C@@H]1CN(Cc2cc3c(s2)n(Cc2ccc(F)c(Cl)c2)c(=O)n2ncnc32)C[C@H](C)O1 [Example 205, 6-(3-Chloro-4-fluorobenzyl)-8-(((2R,6S)-2,6-dimethylmorpholino)methyl)thieno[3,2-e][1,2,4]triazolo[1,5-c]pyrimidin-5(6H)-one]",>7
11,"COc1ccc(Cn2c(=O)n3ncnc3c3cc(CN4CCS(=O)(=O)CC4)sc32)cc1 [Example 206, 8-((1,1-Dioxidothiomorpholino)methyl)-6-(4-methoxybenzyl)thieno[3,2-e][1,2,4]triazolo[1,5-c]pyrimidin-5(6H)-one]",>7
12,"COc1ccc(Cn2c(=O)n3ncnc3c3cc(CN4CCOCC4)sc32)cc1F [Example 207, 6-(3-Fluoro-4-methoxybenzyl)-8-(morpholinomethyl)thieno[3,2-e][1,2,4]triazolo[1,5-c]pyrimidin-5(6H)-one]",>7
13,"O=c1n(Cc2ccc(F)c(Cl)c2)c2sc(CN3CCOCC3)cc2c2ncnn12 [Example 209, 6-(3-Chloro-4-fluorobenzyl)-8-(morpholinomethyl)thieno[3,2-e][1,2,4]triazolo[1,5-c]pyrimidin-5(6H)-one]",>7
14,"COc1ccc(Cn2c(=O)n3ncnc3c3c4c(sc32)CCN(CC2CCOCC2)C4)cc1 [Example 216, 6-(4-Methoxybenzyl)-10-((tetrahydro-2H-pyran-4-yl)methyl)-8,9,10,11-tetrahydropyrido[3′,4′:4,5]thieno[3,2-e][1,2,4]triazolo[1,5-c]pyrimidin-5(6H)-one]",<5
15,"COc1ccc(Cn2c(=O)n3ncnc3c3c4c(sc32)CNCCC4)cc1 [Example 217, 6-(4-Methoxybenzyl)-6,8,9,10,11,12-hexahydro-5H-[1,2,4]triazolo[1″,5″:1′,6′]pyrimido[5′,4′:4,5]thieno[2,3-c]azepin-5-one]",>7
16,"COc1ccc(Cn2c(=O)n3ncnc3c3c4c(sc32)CNCC4(F)F)cc1 [Example 219, 11,11-Difluoro-6-(4-methoxybenzyl)-8,9,10,11-tetrahydropyrido[4′,3′:4,5]thieno[3,2-e][1,2,4]triazolo[1,5-c]pyrimidin-5 (6H)-one]",>7
